SMILES strings stand for the structures. Several values for one entry are separate records, joined by “and”; a condition that tells them apart may be missing. Equal entries are not always repeated.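 Exposure lasted 48 hours, with cells grown in 96-well plates and compounds tested at five concentrations. GI50 is the concentration that inhibits growth by half. Definition used: TGI = concentration required for complete inhibition of growth.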 Bounds are passed on as bounds.

The test system of the first assay is MOLT-4 leukemia. Nature of the assay: NCI tumour cell line growth inhibition, 48 h.
For `COC1C(O)=C2C(=O)O/C(C)=C/C=C/C=C/C=C\CC(c3ccccc3)NC(=O)\C=C/C=C\C=C\C=C\[C@@]2(C)[C@@H]1O` (stereo partly drawn), the TGI was found to be 0.177 µM.

`CCCCCCC[CH2][Sn]1([CH2]CCCCCCC)[O]C(=O)c2cccnc2[S]1`: the GI50 is more than 100 µM and the TGI was more than 100 µM.

Consider `O=C1[C@@H]2C3c4ccccc4C([C@@H]2C(=O)N1c1ccccc1)S3(=O)=O`, for which the TGI was more than 100 µM.

For the compound `N=c1ccn2c(n1)OC1C(O)C(CO)OC12` (stereo not drawn), the GI50 was 0.016 µM.

In turn, `COc1ccc(/C(=N\NC(=O)C(N)=O)C(c2ccc(OC)cc2)C2(O)C(=O)Nc3c(Cl)cccc32)cc1` (stereo not drawn) gave a TGI of more than 100 µM.

With `Cc1ccc(S(=O)(=O)N/N=C/c2oc(-c3ccncc3)c(-c3ccncc3)c2[N+](=O)[O-])cc1`, the TGI is more than 100 µM.

The compound `CCc1cccc(C)c1NC(=O)C(=O)Cc1nc2ccccc2o1` registered a TGI of more than 100 µM.

For `CCOc1ccc2c(c1)[n+]([O-])c(-c1ccccc1Cl)c(N)[n+]2[O-]`, the TGI is more than 100 µM.

`O=C1c2ccccc2C2(O)c3cc4ccccc4cc3OC12O` (stereo not drawn) had a TGI of more than 100 µM.

Another assay concerns DLD-1 colon. Nature of the assay: NCI tumour cell line growth inhibition, 48 h.
`COC1C(O)=C2C(=O)O/C(C)=C/C=C/C=C/C=C\CC(c3ccccc3)NC(=O)\C=C/C=C\C=C\C=C\[C@@]2(C)[C@@H]1O` (stereo partly drawn) registered a TGI of 0.147 µM.

Regarding `CCCCCCC[CH2][Sn]1([CH2]CCCCCCC)[O]C(=O)c2cccnc2[S]1`, the GI50 is more than 100 µM and the TGI is more than 100 µM.

The compound `O=C1[C@@H]2C3c4ccccc4C([C@@H]2C(=O)N1c1ccccc1)S3(=O)=O` gave a TGI of more than 100 µM.

`N=c1ccn2c(n1)OC1C(O)C(CO)OC12` (stereo not drawn) showed a TGI of more than 1000 µM.

`COc1ccc(/C(=N\NC(=O)C(N)=O)C(c2ccc(OC)cc2)C2(O)C(=O)Nc3c(Cl)cccc32)cc1` (stereo not drawn) yielded a TGI of more than 100 µM.

Compound `Cc1ccc(S(=O)(=O)N/N=C/c2oc(-c3ccncc3)c(-c3ccncc3)c2[N+](=O)[O-])cc1` registered a TGI of more than 100 µM.

Regarding `CCc1cccc(C)c1NC(=O)C(=O)Cc1nc2ccccc2o1`, the TGI is more than 100 µM.

As for `CCOc1ccc2c(c1)[n+]([O-])c(-c1ccccc1Cl)c(N)[n+]2[O-]`, the TGI was more than 100 µM.

Regarding `O=C1c2ccccc2C2(O)c3cc4ccccc4cc3OC12O` (stereo not drawn), the TGI was more than 100 µM.

The subject of the next assay is KM20L2 colon. Nature of the assay: NCI tumour cell line growth inhibition, 48 h.
Take `COC1C(O)=C2C(=O)O/C(C)=C/C=C/C=C/C=C\CC(c3ccccc3)NC(=O)\C=C/C=C\C=C\C=C\[C@@]2(C)[C@@H]1O` (stereo partly drawn): the TGI came out at 0.165 µM.

Take `CCCCCCC[CH2][Sn]1([CH2]CCCCCCC)[O]C(=O)c2cccnc2[S]1`: the GI50 is more than 100 µM and the TGI was more than 100 µM.

Take `O=C1[C@@H]2C3c4ccccc4C([C@@H]2C(=O)N1c1ccccc1)S3(=O)=O`: the TGI is more than 100 µM.

As for `N=c1ccn2c(n1)OC1C(O)C(CO)OC12` (stereo not drawn), the TGI is more than 562 µM.

On to `COc1ccc(/C(=N\NC(=O)C(N)=O)C(c2ccc(OC)cc2)C2(O)C(=O)Nc3c(Cl)cccc32)cc1` (stereo not drawn), for which the TGI is more than 100 µM.

`Cc1ccc(S(=O)(=O)N/N=C/c2oc(-c3ccncc3)c(-c3ccncc3)c2[N+](=O)[O-])cc1` came in with a TGI of more than 100 µM.

In turn, `CCc1cccc(C)c1NC(=O)C(=O)Cc1nc2ccccc2o1` returned a TGI of more than 100 µM.

Take `CCOc1ccc2c(c1)[n+]([O-])c(-c1ccccc1Cl)c(N)[n+]2[O-]`: the TGI was more than 100 µM.

`O=C1c2ccccc2C2(O)c3cc4ccccc4cc3OC12O` (stereo not drawn): the TGI is more than 100 µM.

The next assay deals with NCI-H23 lung. The assay is described as follows: NCI tumour cell line growth inhibition, 48 h.
On to `CCCCCCC[CH2][Sn]1([CH2]CCCCCCC)[O]C(=O)c2cccnc2[S]1`, for which the GI50 is more than 100 µM and the TGI is more than 100 µM.

As to `O=C1[C@@H]2C3c4ccccc4C([C@@H]2C(=O)N1c1ccccc1)S3(=O)=O`, the TGI was more than 100 µM.

With `N=c1ccn2c(n1)OC1C(O)C(CO)OC12` (stereo not drawn), the GI50 is 0.345 µM; the TGI is 161 µM and > 100 µM.

`COc1ccc(/C(=N\NC(=O)C(N)=O)C(c2ccc(OC)cc2)C2(O)C(=O)Nc3c(Cl)cccc32)cc1` (stereo not drawn): the TGI is more than 100 µM.

The compound `Cc1ccc(S(=O)(=O)N/N=C/c2oc(-c3ccncc3)c(-c3ccncc3)c2[N+](=O)[O-])cc1` displayed a TGI of more than 100 µM.

For the compound `CCc1cccc(C)c1NC(=O)C(=O)Cc1nc2ccccc2o1`, the TGI was more than 100 µM.

Compound `CCOc1ccc2c(c1)[n+]([O-])c(-c1ccccc1Cl)c(N)[n+]2[O-]` showed a TGI of more than 100 µM.

`O=C1c2ccccc2C2(O)c3cc4ccccc4cc3OC12O` (stereo not drawn) came in with a TGI of more than 100 µM.

Another assay concerns SNB-19 CNS. Nature of the assay: NCI tumour cell line growth inhibition, 48 h.
As for `COC1C(O)=C2C(=O)O/C(C)=C/C=C/C=C/C=C\CC(c3ccccc3)NC(=O)\C=C/C=C\C=C\C=C\[C@@]2(C)[C@@H]1O` (stereo partly drawn), the TGI was 0.141 µM.

Regarding `CCCCCCC[CH2][Sn]1([CH2]CCCCCCC)[O]C(=O)c2cccnc2[S]1`, the GI50 was more than 100 µM and the TGI is more than 100 µM.

Consider `O=C1[C@@H]2C3c4ccccc4C([C@@H]2C(=O)N1c1ccccc1)S3(=O)=O`, for which the TGI is more than 100 µM.

Turning to `N=c1ccn2c(n1)OC1C(O)C(CO)OC12` (stereo not drawn), the TGI was more than 480 µM.

Turning to `COc1ccc(/C(=N\NC(=O)C(N)=O)C(c2ccc(OC)cc2)C2(O)C(=O)Nc3c(Cl)cccc32)cc1` (stereo not drawn), the TGI is more than 100 µM.

In turn, `Cc1ccc(S(=O)(=O)N/N=C/c2oc(-c3ccncc3)c(-c3ccncc3)c2[N+](=O)[O-])cc1` had a TGI of more than 100 µM.

`CCc1cccc(C)c1NC(=O)C(=O)Cc1nc2ccccc2o1` had a TGI of more than 100 µM.

Turning to `CCOc1ccc2c(c1)[n+]([O-])c(-c1ccccc1Cl)c(N)[n+]2[O-]`, the TGI is more than 100 µM.

Take `O=C1c2ccccc2C2(O)c3cc4ccccc4cc3OC12O` (stereo not drawn): the TGI is more than 100 µM.

In another assay the test system is NCI-H460 lung. The assay is described as follows: NCI tumour cell line growth inhibition, 48 h.
For the compound `CCCCCCC[CH2][Sn]1([CH2]CCCCCCC)[O]C(=O)c2cccnc2[S]1`, the GI50 is more than 100 µM and the TGI was more than 100 µM.

The compound `O=C1[C@@H]2C3c4ccccc4C([C@@H]2C(=O)N1c1ccccc1)S3(=O)=O` registered a TGI of more than 100 µM.

Take `N=c1ccn2c(n1)OC1C(O)C(CO)OC12` (stereo not drawn): the GI50 was 0.242 µM; the TGI was 168 µM and > 100 µM.

In turn, `COc1ccc(/C(=N\NC(=O)C(N)=O)C(c2ccc(OC)cc2)C2(O)C(=O)Nc3c(Cl)cccc32)cc1` (stereo not drawn) yielded a TGI of more than 100 µM.

The compound `Cc1ccc(S(=O)(=O)N/N=C/c2oc(-c3ccncc3)c(-c3ccncc3)c2[N+](=O)[O-])cc1` registered a TGI of more than 100 µM.

`CCc1cccc(C)c1NC(=O)C(=O)Cc1nc2ccccc2o1` yielded a TGI of more than 100 µM.

`CCOc1ccc2c(c1)[n+]([O-])c(-c1ccccc1Cl)c(N)[n+]2[O-]` yielded a TGI of more than 100 µM.

In turn, `O=C1c2ccccc2C2(O)c3cc4ccccc4cc3OC12O` (stereo not drawn) had a TGI of more than 100 µM.

The test system of another assay is MCF7 breast. Nature of the assay: NCI tumour cell line growth inhibition, 48 h.
In the case of `COC1C(O)=C2C(=O)O/C(C)=C/C=C/C=C/C=C\CC(c3ccccc3)NC(=O)\C=C/C=C\C=C\C=C\[C@@]2(C)[C@@H]1O` (stereo partly drawn), the TGI was determined as 0.0175 µM.

Regarding `N=c1ccn2c(n1)OC1C(O)C(CO)OC12` (stereo not drawn), the GI50 is 0.0703 µM; the TGI was 361 µM and > 100 µM.

The next assay deals with SW-620 colon. Nature of the assay: NCI tumour cell line growth inhibition, 48 h.
In the case of `COC1C(O)=C2C(=O)O/C(C)=C/C=C/C=C/C=C\CC(c3ccccc3)NC(=O)\C=C/C=C\C=C\C=C\[C@@]2(C)[C@@H]1O` (stereo partly drawn), the TGI was 0.139 µM.

`CCCCCCC[CH2][Sn]1([CH2]CCCCCCC)[O]C(=O)c2cccnc2[S]1`: the GI50 was more than 100 µM and the TGI was more than 100 µM.

As to `O=C1[C@@H]2C3c4ccccc4C([C@@H]2C(=O)N1c1ccccc1)S3(=O)=O`, the TGI was more than 100 µM.

Regarding `N=c1ccn2c(n1)OC1C(O)C(CO)OC12` (stereo not drawn), the GI50 is 5.76 µM and 1.28 µM; the TGI was more than 1000 µM.

`COc1ccc(/C(=N\NC(=O)C(N)=O)C(c2ccc(OC)cc2)C2(O)C(=O)Nc3c(Cl)cccc32)cc1` (stereo not drawn) yielded a TGI of more than 100 µM.

Consider `Cc1ccc(S(=O)(=O)N/N=C/c2oc(-c3ccncc3)c(-c3ccncc3)c2[N+](=O)[O-])cc1`, for which the TGI is more than 100 µM.

In the case of `CCc1cccc(C)c1NC(=O)C(=O)Cc1nc2ccccc2o1`, the TGI is more than 100 µM.

`CCOc1ccc2c(c1)[n+]([O-])c(-c1ccccc1Cl)c(N)[n+]2[O-]` registered a TGI of more than 100 µM.

For the compound `O=C1c2ccccc2C2(O)c3cc4ccccc4cc3OC12O` (stereo not drawn), the TGI is more than 100 µM.

Another assay has as its system SK-MEL-2 melanoma. Nature of the assay: NCI tumour cell line growth inhibition, 48 h.
In the case of `COC1C(O)=C2C(=O)O/C(C)=C/C=C/C=C/C=C\CC(c3ccccc3)NC(=O)\C=C/C=C\C=C\C=C\[C@@]2(C)[C@@H]1O` (stereo partly drawn), the TGI was 0.15 µM.

`CCCCCCC[CH2][Sn]1([CH2]CCCCCCC)[O]C(=O)c2cccnc2[S]1`: the GI50 was more than 100 µM and the TGI was more than 100 µM.

As to `O=C1[C@@H]2C3c4ccccc4C([C@@H]2C(=O)N1c1ccccc1)S3(=O)=O`, the TGI was more than 100 µM.

For `N=c1ccn2c(n1)OC1C(O)C(CO)OC12` (stereo not drawn), the GI50 was more than 100 µM and the TGI was more than 1000 µM.

The compound `COc1ccc(/C(=N\NC(=O)C(N)=O)C(c2ccc(OC)cc2)C2(O)C(=O)Nc3c(Cl)cccc32)cc1` (stereo not drawn) gave a TGI of more than 100 µM.

With `Cc1ccc(S(=O)(=O)N/N=C/c2oc(-c3ccncc3)c(-c3ccncc3)c2[N+](=O)[O-])cc1`, the TGI is more than 100 µM.

For `CCc1cccc(C)c1NC(=O)C(=O)Cc1nc2ccccc2o1`, the TGI is more than 100 µM.

On to `CCOc1ccc2c(c1)[n+]([O-])c(-c1ccccc1Cl)c(N)[n+]2[O-]`, for which the TGI was more than 100 µM.

The compound `O=C1c2ccccc2C2(O)c3cc4ccccc4cc3OC12O` (stereo not drawn) came in with a TGI of more than 100 µM.

Another assay concerns MDA-MB-231 breast. Nature of the assay: NCI tumour cell line growth inhibition, 48 h.
For the compound `COC1C(O)=C2C(=O)O/C(C)=C/C=C/C=C/C=C\CC(c3ccccc3)NC(=O)\C=C/C=C\C=C\C=C\[C@@]2(C)[C@@H]1O` (stereo partly drawn), the TGI stood at 0.0896 µM.

Turning to `N=c1ccn2c(n1)OC1C(O)C(CO)OC12` (stereo not drawn), the GI50 is more than 100 µM and the TGI is more than 1000 µM.

Values taken from PubChem BioAssay (NCI).
